Assay results from paper PMC8038991, “R-catcher, a potent molecular tool to unveil the arginylome” (Cellular and Molecular Life Sciences: CMLS, 2021).
“Also recorded” adds a separate entry of the source. Read-outs that look alike come from different tables or passages of the source. Peptide text beside a SMILES is read from it.

Tests used:
[1] = target: T1, N132D mutant ZZ122-175 (p62) (Homo sapiens, UniProt Q13501, N132D); test: Isothermal titration calorimetry, N132D ZZ; conditions: ITC, N132D ZZ122-175, 25 °C; read-out: binding affinity (KD)
T1 construct: GST-fused p62 (122–175) wild type and mutants (N132Q and N132D) were expressed in E. coli; GST (N); made in house; host or cells: E. coli BL21 (DE3) RIL

[2] = target: T2, N132Q mutant ZZ122-175 (p62) (Homo sapiens, UniProt Q13501, N132Q); test: biochemical; type: binding
T2 construct: GST-fused p62 (122–175) wild type and mutants (N132Q and N132D) were expressed in E. coli; GST (N); made in house; host or cells: E. coli BL21 (DE3) RIL

[3] = target: T3, GST-ZZ122-175 domain (p62) (Homo sapiens, UniProt Q13501); test: Isothermal titration calorimetry, GST-ZZ122-175 (Fig. 2e); type: binding
T3 construct: GST-fused p62 (122–175) wild type and mutants (N132Q and N132D) were expressed in E. coli; made in house; host or cells: E. coli BL21 (DE3) RIL
Description: (§1) For isothermal titration calorimetry (ITC), GST-fused p62 (122–175) wild type and mutants (N132Q and N132D) were expressed in E. coli BL21 (DE3) RIL competent cells in Luria–Bertani media with 0.1 mM Isopropyl-β-D-thio-galactoside (IPTG) at 18 °C. Cells were collected and sonicated in a B buffer (50 mM Tris–HCl pH 7.5, 200 mM NaCl) containing 3 mM β-mercaptoethanol (β-ME). Cell lysates were centrifuged at 18,000 × g for 1 h to remove cell debris, and this supernatant was loaded onto Glutathione Sepharose™ 4 Fast Flow resin and washed with B buffer. GST-fused proteins were eluted with 20 mM glutathione in an elution buffer (100 mM Tris–HCl pH 7.5, 200 mM NaCl, and 3 mM β-ME). The eluted samples were dialyzed in a dialysis buffer (50 mM Tris–HCl pH 7.5, 50 mM NaCl, and 3 mM β-ME) with or without TEV protease. These samples were loaded onto anion exchange column (HiTrap Q HP, GE Healthcare) and unbounded samples were collected and loaded onto size exclusion chromatography (HiLoad ™ 25/600 Superdex™ 75 pg column, GE healthcare) with the B buffer containing 0.2 mM Tris(2-carboxyethyl)phosphine (TCEP).
(§2) Purified proteins were concentrated to 0.05 mM. 4-mer peptides as injectant were resolved in B buffer to a final concentration of 1 mM. ITC measurement was performed at 25 °C on a Microcal Auto-ITC200.

[4] = target: T4, wild type ZZ122-175 (p62) (Homo sapiens, UniProt Q13501); test: Isothermal titration calorimetry, wild type ZZ (Fig. 3b); conditions: ITC, wild type ZZ122-175, 25 °C; read-out: binding affinity (KD)
T4 construct: GST-fused p62 (122–175) wild type and mutants (N132Q and N132D) were expressed in E. coli; GST (N); made in house; host or cells: E. coli BL21 (DE3) RIL

R-catcher [5] = test: Small-scale R-catcher pulldown of known arginylated proteins; type: binding, human; conditions: for pulldown by R-catcher, overexpressed substrates: HEK293 cells, R-catcher on tactin beads, immunoblot
Description: (§3) For small-scale R-catcher pull-down assays, 300 µg of purified R-catcher was conjugated with 120 µl of Strep-Tactin sepharose resin by incubating overnight at 4 °C. To test R-catcher’s ability to capture known arginylated proteins, such as R-BiP, R-PDI, R-nsP4 and R-RGS4, plasmids encoding Ub-X-(BiP, PDI and nsP4) or MX-RGS4 (X = Arg or Val) were transiently transfected into HEK293 cells. After 24 h, cells were treated with 10 µM MG132 and 100 nM thapsigargin for another 24 h. Cells were harvested and lysed in hypotonic buffer and 300 µg total protein was incubate with 25 µl R-catcher-sepharose resin in binding buffer (20 mM HEPES pH 7.9, 0.05% Tween 20, 10% glycerol, 0.2 M KCl, protease inhibitor and phosphatase inhibitor) for 3 h with gentle rotation at 4 °C. After three washes with binding buffer, bound proteins were dissociated with 2 × SDS sample buffer and boiling at 100 °C and subjected to immunoblotting using anti-myc or flag antibodies.

[6] = tested on: HeLa cell extracts stimulated with MG132 plus TG; test: Large-scale R-catcher pulldown coupled to silver staining and LC-MS/MS; design: species or system human; conditions: for presence in R-catcher working list: LC-MS/MS working list
Description: For large-scale R-catcher pulldown assays, HeLa cells were treated with 5 µM MG132 and 100 nM thapsigargin for 24 h. Cells were lysed in hypotonic buffer and 10 mg total was incubated with 750 µl R-catcher-sepharose beads for 3 h at 4 °C after pre-clearing with D129A mutant R-catcher-sepharose beads for 3 h at 4 °C. After three washes with binding buffer, bound proteins were eluted with binding buffer containing 20 mM D-biotin. To remove R-catcher, the eluent was dialyzed using 20 kDa cut-off dialysis membrane in binding buffer containing 3.5 M MgCl2 overnight followed by another overnight dialysis in distilled-deionized water. The dialyzed eluent was lyophilized overnight and dried powder was dissolved in 100 µl LC/MS solubilizer for silver staining and mass spectrometry analysis.
Protein samples solubilized in Invitrosol LC/MS solubilizer (Invitrogen) as following by manufacturer protocol. For removal of incompatible buffer components, protein samples filtrate with 10 K MW ultrafilter for complete digestion. For preparing trypsinization of samples, the retentates were dissolved in 50 mM of ammonium bicarbonate (pH 8.0) untill it reach 1 μg/μL of final concentration. The samples treated with 10 mM DTT at 60 °C for 45 min. Following 20 mM IAA addition, the final mixture incubated in dark for 45 min at 25 °C. 1:50 ratio of Trypsin was added on mixture. The mixture incubated overnight at 37 °C. Final digested samples dried with speed-vacuum. Samples re-dissolved in 20 μL of water containing 0.1% formic acid for LC–MS/MS analysis.
Peptides were analyzed using a LC–MS/MS system consisting of an Easy nLC 1000 (Thermo Fisher scientific) and an Orbitrap Fusion Lumos mass spectrometer (Thermo Fisher Scientific) equipped with a nano-electrospray source (EASY-Spray Sources, Thermo Fisher Scientific). Peptides were trapped 75 μm × 2 cm C18 pre-column (nanoViper, Acclaim PepMap100, Thermo Fisher Scientific) before being separated on an analytical C18 column (75 μm × 50 cm PepMap RSLC, Thermo Fisher Scientific) at a flow rate of 300 nL/min. The mobile phases A and B were composed of 0 and 100% acetonitrile containing 0.1% formic acid, respectively. The LC gradient began with 5% B and was ramped to 8% B for 1 min, 10% B for 16 min, to 40% B for 79 min, to 80% B for 1 min, and remained at 80% B over 8 min. Finally, it was ramped to 5% B for another 5 min. The column was re-equilibrated with 2% B for 10 min before the next run. The voltage applied to produce an electrospray was 1900 V. During the chromatographic separation, the Orbitrap Fusion Lumos was operated in data-dependent mode, automatically switching between MS1 and MS2. The MS data were acquired using the following parameters: Full-scan MS1 spectra (400–1600 m/z) were acquired in the Orbitrap for a maximum ion injection time of 100 ms at a resolution of 120,000 and an automatic gain control (AGC) target value of 4.0e5. MS2 spectra were acquired in the Orbitrap mass analyzer at resolution of 30,000 with high-energy collision dissociation (HCD) of 27% normalized collision energy and AGC target value of 5.0e4 with maximum ion injection time of 54 ms. Previously fragmented ions were excluded for 30 s.
MS/MS spectra were analyzed using the following software analysis protocols with the Uniprot human DB (2019). The reversed sequences of all proteins were appended into the database for calculation of false discovery rate (FDR). ProLucid was used to identify the peptides, a precursor mass error of 5 ppm, and a fragment ion mass error of 200 ppm. Trypsin was selected as the enzyme, with one potential missed cleavage. Carbamidomethylation at cystein was chosen as static modifications. Oxidation at methionine was chosen as variable modification. The output data files were filtered and sorted to compose the protein list using the DTASelect (The Scripps Research Institute, USA) with two and more peptides assignments for a protein identification and a false positive rate less than 0.01. […]

R-catcher [7] = test: R-catcher pulldown of putative arginylated ER proteins, HeLa; type: binding, human; conditions: 5 µM MG132 plus 100 nM TG, RA competition, Fig. 6a
Description: as §3
Plasmids encoding the proteins were transiently transfected to HeLa cells for 24 h and stimulated with 5 µM MG132 plus 100 nM TG for another 24 h. Cell lysates were incubated with R-catcher immobilized on tactin beads for 3 h. After wash, bound proteins were eluted with 2 × SDS sample buffer followed by boiling at 100 °C for 10 min and visualized by western blot analysis. b R-catcher pulldown assays to validate ATE1-dependent arginylation of […]1, PRDX4, FBLN1 and CLUS. Plasmids encoding […]1, PRDX4, FBLN1 and CLUS were transiently transfected into + / + and ATE1^−/− MEFs for 24 h and stimulated with 5 µM MG132 plus 100 nM TG for another 9 h. Cell lysates were subjected to R-catcher pulldown, and bound proteins were detected by western blot analysis. c R-catcher pull-down assays to evaluate if the arginylation of FBNL1, SERPINH1, CLUS and PRDX4 is induced in response to MG132 plus thapsigargin. d X-peptide pulldown assays to confirm no interaction of R-catcher with Nt-Ala19 of SERPINH1 peptides and Nt-Trp38 of PRDX4 peptides. X-peptides where X is A19 (SignalP predicted P1’ site), E20 (next possible P1’ site predicted by PrediSi) or R19 (Arginylated form of Glu) for SERPINH1 and W38 (SignalP predicted P1’ site), E39 (next possible P1’ site predicted by PrediSi) or R38 (Arginylated form) for PRDX4. Biotinylated X-peptides immobilized on streptavidin agarose beads were incubated with affinity-purified GST-ZZ ([…]). Bound GST-ZZ (N132D) was detected by immunoblotting. e Identification of arginylated sites employing mutational analysis. Predicted P1’ sites of SERPINH1, PRDX4, CLUS and FBLN1 were substituted to Gly, and the inhibitory effect of the mutation on binding with R-catcher was examined by performing R-catcher pulldown assays

[8] = tested on: ZZ wild type, ZZ (N132D) and ZZ (N132Q); test: Isothermal titration calorimetry, any ZZ domain (wild type, N132D, N132Q); type: binding, human; conditions: ITC, 25 °C
Description: as §1, §2

T4 sequence (Q13501 122-175): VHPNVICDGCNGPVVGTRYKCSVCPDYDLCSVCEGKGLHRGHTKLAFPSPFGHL
T3 sequence (Q13501 122-175): as above
T1 sequence (Q13501 122-175 N132D): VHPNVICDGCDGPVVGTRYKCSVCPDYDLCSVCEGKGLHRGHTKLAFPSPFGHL
T2 sequence (Q13501 122-175 N132Q): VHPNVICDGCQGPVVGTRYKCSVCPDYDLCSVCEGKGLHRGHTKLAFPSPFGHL

Q: `CC[C@H](C)[C@H](NC(=O)[C@@H](N)CCCNC(=N)N)C(=O)N[C@@H](Cc1ccccc1)C(=O)N[C@@H](CO)C(=O)O` [RIFS] (H-RIFS-OH) was tested. Which Kd [1] did it give?
A: The Kd was 2.85 µM.

Q: What about the Kd [2] of the same compound?
A: Its Kd is 21.4 ± 9.51 µM.

Q: What about the Kd [3] of the same compound?
A: Its Kd is 4.39 ± 0.449 µM.

Q: And the Kd [4]?
A: Its Kd is 6.9 µM.

Q: Which Kd [1] does the source give for `CC[C@H](C)[C@H](NC(=O)[C@@H](N)Cc1ccc(O)cc1)C(=O)N[C@@H](Cc1ccccc1)C(=O)N[C@@H](CO)C(=O)O` [YIFS] (H-YIFS-OH) here?
A: The Kd was 107 µM.

Q: And the Kd ([3]; ITC, (GST-)ZZ122-175 wild type, 25 °C, read-out: KD)?
A: Its Kd is 16.1 µM.

Q: And the Kd [4]?
A: Its Kd is 20.7 µM.

Q: Which results are given for “BiP: ER chaperone BiP, arginylated (2nd Glu)”?
A: pulldown by R-catcher, overexpressed substrates (R-catcher [5]; Fig. 4d): could pulldown; pulldown by R-catcher, endogenous (R-catcher [5]; HeLa, MG132 plus TG, Fig. 4e): could pulldown; presence in R-catcher working list [6]: among the known arginylated proteins

Q: How did the “binding with R-catcher, Nt-Arg dependence” value (R-catcher [7]) turn out when ENPL: endoplasmin was run?
A: The value was “no significant binding affinity for R-catcher”.

Q: How did the “affinity for ZZ domains” value [8] turn out when FIFS [peptide] was run?
A: Its value is “no affinity”.

Q: With FKBP10: FK506-binding protein 10 as the compound, how does the “binding with R-catcher, Nt-Arg dependence” value (R-catcher [7]) read?
A: The value was “Nt-Arg-dependent binding with R-catcher; also recorded: unusually high binding affinity for R-catcher”.

Q: For IIFS [peptide], which “affinity for ZZ domains” value [8] is on record?
A: The value was “no affinity”.

Q: Which “affinity for ZZ domains” value [8] does the source give for LIFS [peptide] here?
A: Its value is “no affinity”.

Q: For “PDI: protein disulfide isomerase, arginylated (2nd Asp)”, which “binding affinity for R-catcher” value (R-catcher [5]; Fig. 4d, discussion) is on record?
A: Its value is “low binding affinity”.

Q: And the “pulldown by R-catcher, overexpressed substrates” value (R-catcher [5]; Fig. 4d)?
A: The value was “could pulldown”.

Q: What about the “presence in R-catcher working list” value [6] of the same compound?
A: Its value is “not detected in our list”.

Q: How did the “R-PDI binding to R-catcher, preliminary” value (R-catcher [5]; preliminary result, N-termini enhancing methods) turn out when R-PDI: arginylated PDI was run?
A: Its value is “detected R-PDI binding to R-catcher”.

Q: Which results are given for “R-catcher: ZZ122-175^N132D tagged with twin strepII-His6 at the N-terminus, approximately 9 kDa protein”?
A: number of known and putative arginylated proteins captured (final working list) ([6]; HeLa, MG132 + TG): 59 proteins; number of proteins in WT list ([6]; no dipeptide, LC-MS/MS, Fig. 5c): 83 proteins; number of proteins in AR list ([6]; with AR dipeptide competition): 163 proteins; number of proteins in RA list ([6]; with RA dipeptide competition): 42 proteins

Q: How did the “affinity for ZZ domains” value [8] turn out when TIFS [4-mer peptide] was run?
A: Its value is “no affinity”.
